Consider 19 molecules from patent EP4813381A1, “PHARMACEUTICAL USE OF GUAIANE SESQUITERPENE DERIVATIVE” (Nanjing University Of Chinese Medicine, priority 2023, dated 2025).

The test system of data set [1] is MDSCs and T cells. Description: T cell proliferation in a co-culture model of MDSCs and T cells (flow cytometry). Format: cell-based, mice. The note with it: MDSCs treated with 1 µM compound for 12 h, 48 h co-culture with T cells (1:1), compared to the control group. On the procedure:
Under sterile conditions, the tibia was removed, both ends of the bone were cut, and bone marrow was repeatedly flushed into a 15 mL centrifuge tube using a 1 mL syringe filled with culture medium. Centrifuge at 1600 rpm for 5 min to collect bone marrow cells. […] The spleen cell suspension was then transferred into a 15 mL centrifuge tube. Centrifuge at 1600 rpm for 5 min to collect T cells. Wash twice with 1×PBS. Resuspend the centrifuged T cells in 1 mL PBS and add 1 mL of 10 µM CFDA-SE solution. Incubate at room temperature for 8 min. […] After drug administration, collect MDSC cells into centrifuge tubes. Centrifuge at 1600 rpm for 5 min, remove supernatant, resuspend in 1 mL fresh medium, and plate. Add 1 mL stimulated activated T cells (1:1 ratio) for 48 h co-culture. After incubation, collect cells into centrifuge tubes, wash twice with PBS, and incubate with Fc antibody at room temperature in the dark for 10 min. Add CD3-labeled flow cytometry antibody and incubate at 4 °C in the dark for 30 min. After incubation, wash cells with PBS, resuspend in 300 µL PBS, and analyze by flow cytometry.

Data set [2] is described as follows: Conversion rate of salt-form prodrugs to parent compound in HEPES buffer solution. The data set is classed as physicochemical. The note with it: conversion to Compound 1, HEPES buffer pH 7.4, 37 °C. On the procedure:
Adjust the pH to 7.4 using 0.5 M NaOH, then dilute to a final volume 100 mL with distilled water.
(§1) Sample Analysis: Dissolve 0.6 mg of the compound in 250 µl of deionized water separately. Add 250 µl of mouse serum or HEPES 7.4 solution to the sample, incubate at a constant temperature of 37 °C, and collect samples at different time points. Pipette 20 µl of the sample to an EP tube, add 60 µl of methanol, vortex to mix thoroughly, and centrifuge at 12,000 rpm at 4 °C for 10 min. At 1 h, 2 h, 4 h, 8 h, and 12 h respectively, collect the supernatant for HPLC analysis. Inject 10 µL of sample and record the corresponding peak areas.

Data set [3] can be described thus: Conversion rate of salt-form prodrugs to parent compound in mouse plasma. Format: in vitro ADME. The note with it: conversion to Compound 1, mouse plasma, 37 °C. On the procedure: Pharmaceutically acceptable salts of guaiane-type sesquiterpene lactone derivatives were selected and evaluated for their conversion rates to Compound 1 and Compound 83 in plasma and HEPES buffer, with results shown in Tables 2-1, 2-2, 3-1, and 3-2.
Plasma Preparation: Collect mouse plasma into an EP tube pre-loaded with sodium heparin, centrifuge at 8000 rpm for 10 minutes at 4°C, and then collect the supernatant.
as §1, with “areas. Chromatographic conditions: Hanbang C18 column (4.6 × 250 mm, 5 µm); mobile phase: acetonitrile: […] ammonium formate solution = 60:40; flow rate 1.0 mL/min; detection wavelength 210 nm; column temperature 30 °C. [drawing 171] Table 2-1. Conversion Rate of Compounds 20-42 to Compound 1 at Different Time Points in HEPES Buffer Solution” for “areas.”

`C=C1C(=O)O[C@H]2[C@H]1CCC(C)=C1CC[C@@](C)(OC(=O)N3CCC(C)CC3)[C@@H]12` [compound 84]: the “T-cell proliferation rate (%)” value in data set [1] is on record as “++ (T-cell proliferation rate within the 20-40% range compared to the control group)”.

In the case of `C=C1C(=O)O[C@H]2[C@H]1CCC(C)=C1CC[C@@](C)(OC(=O)NCC(C)C)[C@@H]12` [compound 88], the “T-cell proliferation rate (%)” value in data set [1] is given as “++ (T-cell proliferation rate within the 20-40% range compared to the control group)”.

On to `C=C1C(=O)O[C@H]2[C@H]1CCC(C)=C1CC[C@@](C)(OC(=O)N3CCN(CC)CC3)[C@@H]12` [compound 86], for which the “T-cell proliferation rate (%)” value in data set [1] is “++ (T-cell proliferation rate within the 20-40% range compared to the control group)”.

Take `CC1=C2CC[C@@](C)(OC(=O)N3CCCCC3)[C@@H]2[C@H]2OC(=O)[C@@H](CN(C)C)[C@@H]2CC1` [compound 97]: the “T-cell proliferation rate (%)” value in data set [1] is “+ (T-cell proliferation rate within the 0-20% range compared to the control group)”.

Take `CC(C)(C)OC(=O)N1CCN(C[C@@H]2C(=O)O[C@H]3[C@H]2CC[C@@]2(C)C[C@]24CC[C@@](C)(O)[C@H]34)CC1` [compound 44]: in data set [1], the “T-cell proliferation rate (%)” value is listed as “+ (T-cell proliferation rate within the 0-20% range compared to the control group)”.

Regarding `CN(C)C[C@@H]1C(=O)O[C@H]2[C@H]1CC[C@@]1(C)C[C@]13CC[C@@](C)(O)[C@H]23` [compound 2], the “T-cell proliferation rate (%)” value in data set [1] is reported as “++ (T-cell proliferation rate within the 20-40% range compared to the control group)”.

Consider `C=C1C(=O)O[C@H]2[C@H]1CCC(C)=C1CC[C@@](C)(OC(=O)NCCN(C)C)[C@@H]12` [compound 77], for which the “T-cell proliferation rate (%)” value in data set [1] was “+ (T-cell proliferation rate within the 0-20% range compared to the control group)”.

For the molecule `CCC(=O)O[C@]1(C)CC[C@@]23C[C@]2(C)CC[C@@H]2[C@H](CC(=O)[C@H]2CN(C)C)[C@H]31` [compound 63], the “T-cell proliferation rate (%)” value in data set [1] is given as “+ (T-cell proliferation rate within the 0-20% range compared to the control group)”.

`C=C1C(=O)O[C@H]2[C@H]1CCC(C)=C1CC[C@@](C)(OC(=O)NC3CC3)[C@@H]12` [compound 70]: the “T-cell proliferation rate (%)” value in data set [1] is reported as “+ (T-cell proliferation rate within the 0-20% range compared to the control group)”.

Regarding `C=C1C(=O)O[C@H]2[C@H]1CCC(C)=C1CC[C@@](C)(OC(=O)N(CC)CC)[C@@H]12` [compound 81], the “T-cell proliferation rate (%)” value in data set [1] is reported as “++ (T-cell proliferation rate within the 20-40% range compared to the control group)”.

For the molecule `CC(C)N(C[C@@H]1C(=O)O[C@H]2[C@H]1CC[C@@]1(C)C[C@]13CC[C@@](C)(O)[C@H]23)C(C)C` [compound 31], the Release rate was determined as 6.7% in data set [2] (1 h); 14.0% in data set [2] (2 h); 23.0% in data set [2] (4 h); 41.2% in data set [2] (8 h); 49.5% in data set [2] (12 h); 6.5% in data set [3] (1 h). The Release rate in data set [3] (2 h) is recorded as 13.9%; in data set [3] (4 h) it was 24.4%; in data set [3] (8 h), 40.2%; in data set [3] (12 h), 48.5%.

With `CN(C)C[C@@H]1C(=O)O[C@H]2[C@H]1CC[C@@]1(C)C[C@]13CC[C@@](C)(O)[C@H]23` [compound 42], the Release rate was 7.0% in data set [2] (1 h); 15.0% in data set [2] (2 h); 25.2% in data set [2] (4 h); 42.8% in data set [2] (8 h); 52.3% in data set [2] (12 h); 6.3% in data set [3] (1 h). The results for the Release rate in data set [3] (2 h), in data set [3] (8 h) and in data set [3] (12 h) were 14.2%, 41.0% and 47.2%, respectively.

For `C[C@@]12CC[C@@H]3[C@H](OC(=O)[C@H]3CN3CCCCC3)[C@@H]3[C@]1(CC[C@@]3(C)O)C2` [compound 24], the Release rate came out at 6.8% in data set [2] (1 h); 15.1% in data set [2] (2 h); 26.7% in data set [2] (4 h); 42.8% in data set [2] (8 h); 54.0% in data set [2] (12 h); 7.7% in data set [3] (1 h). Also, the Release rate in data set [3] (2 h) stood at 17.1%; in data set [3] (4 h) it was 27.7%; in data set [3] (8 h), 47.8%; in data set [3] (12 h), 57.9%.

For the molecule `CCN(CC)C[C@@H]1C(=O)O[C@H]2[C@H]1CC[C@@]1(C)C[C@]13CC[C@@](C)(O)[C@H]23` [compound 28], the Release rate in data set [2] (1 h) was 6.8%; in data set [2] (2 h) it was 14.5%; in data set [2] (4 h), 24.4%; in data set [2] (8 h), 40.4%; in data set [2] (12 h), 50.0%; in data set [3] (1 h) it was 6.8%. The Release rate in data set [3] (2 h) is reported as 14.5%; in data set [3] (4 h), 24.4%; in data set [3] (8 h), 40.4%; in data set [3] (12 h), 49.1%.

For `CN(C)C[C@@H]1C(=O)O[C@H]2[C@H]1CC[C@@]1(C)C[C@]13CC[C@@](C)(O)[C@H]23` [compound 39], the Release rate in data set [2] (1 h) came out at 6.6%; in data set [2] (2 h), 15.0%; in data set [2] (8 h), 42.7%; in data set [2] (12 h), 54.3%; in data set [3] (1 h), 6.6%; in data set [3] (2 h) it was 14.0%. The Release rate in data set [3] (8 h) is listed as 43.6%; in data set [3] (12 h) it was 52.8%.

For the molecule `C[C@@]12CC[C@@H]3[C@H](OC(=O)[C@H]3CN3CCOCC3)[C@@H]3[C@]1(CC[C@@]3(C)O)C2` [compound 25], the Release rate in data set [2] (1 h) turned out to be 6.8%; in data set [2] (2 h) it was 14.1%; in data set [2] (4 h), 26.1%; in data set [2] (8 h), 42.8%; in data set [2] (12 h) it was 51.8%; in data set [3] (1 h), 6.8%. Further, the Release rate was 14.1% in data set [3] (2 h), 25.7% in data set [3] (4 h), 43.8% in data set [3] (8 h) and 51.8% in data set [3] (12 h).

For the molecule `C[C@@]12CC[C@@H]3[C@H](OC(=O)[C@H]3CN3CCC3)[C@@H]3[C@]1(CC[C@@]3(C)O)C2` [compound 33], the Release rate in data set [2] (1 h) is reported as 6.9%; in data set [2] (2 h), 15.8%; in data set [2] (4 h), 26.0%; in data set [2] (8 h), 41.8%; in data set [2] (12 h), 51.1%; in data set [3] (1 h) it was 6.9%. Also, the Release rate worked out at 14.8% in data set [3] (2 h), 26.0% in data set [3] (4 h), 42.8% in data set [3] (8 h) and 50.7% in data set [3] (12 h).

Turning to `CCOC(=O)[C@@H]1CCCN1C[C@@H]1C(=O)O[C@H]2[C@H]1CC[C@@]1(C)C[C@]13CC[C@@](C)(O)[C@H]23` [compound 23], the Release rate was determined as 6.2% in data set [2] (1 h); 14.3% in data set [2] (2 h); 26.8% in data set [2] (4 h); 41.1% in data set [2] (8 h); 52.8% in data set [2] (12 h); 7.2% in data set [3] (1 h). Moreover, the Release rate in data set [3] (2 h) came out at 14.3%; in data set [3] (4 h) it was 26.8%; in data set [3] (8 h) it was 45.1%; in data set [3] (12 h) it was 52.8%.

As for `CN(C)C[C@@H]1C(=O)O[C@H]2[C@H]1CC[C@@]1(C)C[C@]13CC[C@@](C)(O)[C@H]23` [compound 41], the Release rate was 7.0% in data set [2] (1 h); 16.2% in data set [2] (2 h); 27.3% in data set [2] (4 h); 43.4% in data set [2] (8 h); 53.2% in data set [2] (12 h); 7.8% in data set [3] (1 h). Moreover, the Release rate in data set [3] (2 h) worked out at 17.2%; in data set [3] (4 h), 28.0%; in data set [3] (8 h), 46.1%; in data set [3] (12 h), 54.8%.
